Reference: patent US12371454B2, “Cyclic peptide compound having Kras inhibitory action” (priority 2019, dated 2025)
Positions of bridges follow the written chain, without caps; N, C: chain ends. Non-standard residues stand in square brackets, D forms with d. Residues, ends and D or L forms follow the SMILES beside them. *: point of attachment. hPhe(3,5-F2-4-CF3) = N[C@@H](CCc1cc(F)c(C(F)(F)F)c(F)c1)C(=O)O; hPhe(3-Cl-4-CF3) = N[C@@H](CCc1ccc(C(F)(F)F)c(Cl)c1)C(=O)O; hPhe(3-F,4-CF3) = N[C@@H](CCc1ccc(C(F)(F)F)c(F)c1)C(=O)O; Piperazinyl(4-(3-oxetanyl)) = C1OCC1N1CCN(*)CC1; 3Oxa8azabicyclo(3.2.1)octane = C1CC2COCC1N2*; NMeAbu(4,4,4-F3) = CN[C@@H](CC(F)(F)F)C(=O)O; NMePhe(4-Me) = CN[C@@H](Cc1ccc(C)cc1)C(=O)O; NMeGly(cPent) = CN[C@H](C(=O)O)C1CCCC1; NMeGly(cBu) = CN[C@H](C(=O)O)C1CCC1; NMeCha = CN[C@@H](CC1CCCCC1)C(=O)O; NEtLeu = CCN[C@@H](CC(C)C)C(=O)O; NMeChg = CN[C@H](C(=O)O)C1CCCCC1; NMeI = CC[C@H](C)[C@H](NC)C(=O)O; NMeD = CN[C@@H](CC(=O)O)C(=O)O; NMeL = CN[C@@H](CC(C)C)C(=O)O; Oxazolidin(3-yl) = C1CN(*)CO1; NMeNva = CCC[C@H](NC)C(=O)O; NMeV = CN[C@H](C(=O)O)C(C)C; Morpholide = C1CN(*)CCO1; NMeA = CN[C@@H](C)C(=O)O; Piperidide = C1CCN(*)CC1; Pyrrolidide = C1CCN(*)C1; Ac5c = NC1(C(=O)O)CCCC1; Aze = O=C(O)[C@@H]1CCN1; X1 = FC1(F)CN(*)CC1(F)F; X14 = CC1(C)CCN(*)C1; NEtG = CCNCC(=O)O; Sar = CNCC(=O)O

Assays:
[1] = molecular target: T1, Kras and SOS1 (biotin-tagged human Kras loaded with GDP, His-tagged human SOS1) (Homo sapiens, UniProt P01116, G12D); assay: Protein-protein interaction inhibition between Kras and SOS1 (KrasGl2D-SOS PPI) using AlphaScreen; type: binding; settings: AlphaScreen; biotin-tagged human Kras loaded with GDP, His-tagged human SOS1; read-out: KRAS G12D-SOS PPI IC50
T1 construct: made in house; host or cells: E. coli (stated for Kras only)
T1 sequence (P01116 1-188 isoform P01116-2 G12D): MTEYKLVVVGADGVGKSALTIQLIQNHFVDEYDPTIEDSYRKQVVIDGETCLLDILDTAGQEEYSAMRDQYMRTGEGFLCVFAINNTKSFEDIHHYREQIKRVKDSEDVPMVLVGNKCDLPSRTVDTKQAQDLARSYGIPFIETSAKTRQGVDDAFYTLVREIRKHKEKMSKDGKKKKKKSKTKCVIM
In short: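 Read-out is acceptor-bead light at 520-620 nm, arising when 680 nm-irradiated nickel donor beads pass singlet oxygen to streptavidin acceptors. The bead pair links His-tagged SOS1 with biotin-tagged, GDP-bound Kras from E. coli.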

[2] = test system: Human pancreatic cancer cell line AsPC-1; assay: Measurement of AsPC-1 cell growth inhibition (AsPC-1 CGI); type: cell-based; settings: 96 h
In short: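 AsPC-1 cells in 15% FBS RPMI-1640 were exposed to test compound for 96 hours at 37° C, with CellTiter-Glo as endpoint.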

Structure (SMILES)	IC50 [1]	IC50 [2]
CC[C@H](C)[C@@H]1NC(=O)[C@H](CC(C)C)N(C)C(=O)C[C@@H](C(=O)N2CCOC2)N(C)C(=O)[C@H](C2CCCCC2)N(C)C(=O)C2(CCCC2)NC(=O)[C@@H]2CCCN2C(=O)[C@H](CCc2ccc(C(F)(F)F)c(Cl)c2)NC(=O)CN(C)C(=O)[C@H](CC2CCCCC2)N(C)C(=O)CN(C)C(=O)CN(C)C1=O [Compound 1180] ([NMeL]I[Sar][Sar][NMeCha][Sar][hPhe(3-Cl-4-CF3)]P[Ac5c][NMeChg][NMeD]-{Oxazolidin(3-yl)}; lactam N-11)	0.5 nM	50 to 100 nM
CC[C@H](C)[C@@H]1NC(=O)[C@H](CC(C)C)N(C)C(=O)C[C@@H](C(=O)N2CCN(C3COC3)CC2)N(C)C(=O)[C@H](C(C)C)N(C)C(=O)C2(CCCC2)NC(=O)[C@@H]2CCCN2C(=O)[C@H](CCc2ccc(C(F)(F)F)c(Cl)c2)NC(=O)CN(C)C(=O)[C@H](CC2CCCCC2)N(C)C(=O)[C@@H]2CCN2C(=O)[C@H](C)N(C)C1=O [Compound 1181] ([NMeL]I[NMeA][Aze][NMeCha][Sar][hPhe(3-Cl-4-CF3)]P[Ac5c][NMeV][NMeD]-{Piperazinyl(4-(3-oxetanyl))}; lactam N-11)	6 nM	100 to 500 nM
CC[C@H](C)[C@@H]1NC(=O)[C@H](CC(C)C)N(CC)C(=O)C[C@@H](C(=O)N2CCOCC2)N(C)C(=O)[C@H](C2CCCCC2)N(C)C(=O)C2(CCCC2)NC(=O)[C@@H]2CCCN2C(=O)[C@H](CCc2ccc(C(F)(F)F)c(Cl)c2)NC(=O)CN(C)C(=O)[C@H](CC2CCCCC2)N(C)C(=O)CN(C)C(=O)CN(C)C1=O [Compound 1189] ([NEtLeu]I[Sar][Sar][NMeCha][Sar][hPhe(3-Cl-4-CF3)]P[Ac5c][NMeChg][NMeD]-Morpholide; lactam N-11)	0.74 nM	50 to 100 nM
CCC[C@H]1C(=O)N[C@@H]([C@@H](C)CC)C(=O)N(C)CC(=O)N(C)CC(=O)N(C)[C@@H](Cc2ccc(C)cc2)C(=O)N(C)CC(=O)N[C@@H](CCc2cc(F)c(C(F)(F)F)c(F)c2)C(=O)N2CCC[C@H]2C(=O)NC2(CCCC2)C(=O)N(C)[C@@H](C2CCCCC2)C(=O)N(C)[C@H](C(=O)N2CCCC2)CC(=O)N1C [Compound 1197] ([NMeNva]I[Sar][Sar][NMePhe(4-Me)][Sar][hPhe(3,5-F2-4-CF3)]P[Ac5c][NMeChg][NMeD]-Pyrrolidide; lactam N-11)	0.6 nM	20 to 50 nM
CC[C@H](C)[C@@H]1NC(=O)[C@H](CC(C)C)N(C)C(=O)C[C@@H](C(=O)N2CCCCC2)N(C)C(=O)[C@H](C2CCCCC2)N(C)C(=O)C2(CCCC2)NC(=O)[C@@H]2CCCN2C(=O)[C@H](CCc2ccc(C(F)(F)F)c(Cl)c2)NC(=O)CN(CC)C(=O)[C@H](CC2CCCCC2)N(C)C(=O)CN(C)C(=O)CN(C)C1=O [Compound 1203] ([NMeL]I[Sar][Sar][NMeCha][NEtG][hPhe(3-Cl-4-CF3)]P[Ac5c][NMeChg][NMeD]-Piperidide; lactam N-11)	2.1 nM	100 to 500 nM
CC[C@H](C)[C@@H]1NC(=O)[C@H](CC(C)C)N(C)C(=O)C[C@@H](C(=O)N2CC(F)(F)C(F)(F)C2)N(C)C(=O)[C@H](C2CCCCC2)N(C)C(=O)C2(CCCC2)NC(=O)[C@@H]2CCCN2C(=O)[C@H](CCc2ccc(C(F)(F)F)c(Cl)c2)NC(=O)CN(C)C(=O)[C@H](CC2CCCCC2)N(C)C(=O)CN(C)C(=O)CN(C)C1=O [Compound 1207] ([NMeL]I[Sar][Sar][NMeCha][Sar][hPhe(3-Cl-4-CF3)]P[Ac5c][NMeChg][NMeD]-X1; lactam N-11)	2.7 nM	100 to 500 nM
CC[C@H](C)[C@@H]1NC(=O)[C@H](CC(C)C)N(C)C(=O)C[C@@H](C(=O)N2CCCCC2)N(C)C(=O)[C@H](C2CCCCC2)N(C)C(=O)C2(CCCC2)NC(=O)[C@@H]2CCCN2C(=O)[C@H](CCc2ccc(C(F)(F)F)c(Cl)c2)NC(=O)CN(C)C(=O)[C@H](CC2CCCCC2)N(C)C(=O)CN(CC)C(=O)CN(C)C1=O [Compound 1227] ([NMeL]I[Sar][NEtG][NMeCha][Sar][hPhe(3-Cl-4-CF3)]P[Ac5c][NMeChg][NMeD]-Piperidide; lactam N-11)	1.3 nM	100 to 500 nM
CC[C@H](C)[C@@H]1NC(=O)[C@H](CC(F)(F)F)N(C)C(=O)C[C@@H](C(=O)N2CCCC2)N(C)C(=O)[C@H](C2CCCCC2)N(C)C(=O)C2(CCCC2)NC(=O)[C@@H]2CCCN2C(=O)[C@H](CCc2cc(F)c(C(F)(F)F)c(F)c2)NC(=O)CN(C)C(=O)[C@H](CC2CCCCC2)N(C)C(=O)CN(C)C(=O)CN(C)C1=O [Compound 1228] ([NMeAbu(4,4,4-F3)]I[Sar][Sar][NMeCha][Sar][hPhe(3,5-F2-4-CF3)]P[Ac5c][NMeChg][NMeD]-Pyrrolidide; lactam N-11)	0.59 nM	20 to 50 nM
CC[C@H](C)[C@@H]1NC(=O)[C@H](CC(C)C)N(C)C(=O)C[C@@H](C(=O)N2C3CCC2COC3)N(C)C(=O)[C@H](C(C)C)N(C)C(=O)C2(CCCC2)NC(=O)[C@@H]2CCCN2C(=O)[C@H](CCc2ccc(C(F)(F)F)c(Cl)c2)NC(=O)CN(C)C(=O)[C@H](CC2CCCCC2)N(C)C(=O)[C@@H]2CCN2C(=O)[C@H](C)N(C)C1=O [Compound 1235] ([NMeL]I[NMeA][Aze][NMeCha][Sar][hPhe(3-Cl-4-CF3)]P[Ac5c][NMeV][NMeD]-{3Oxa8azabicyclo(3.2.1)octane}; lactam N-11)	5.5 nM	100 to 500 nM
CC[C@H](C)[C@@H]1NC(=O)[C@H](CC(C)C)N(CC)C(=O)C[C@@H](C(=O)N(C)C)N(C)C(=O)[C@H](C2CCCC2)N(C)C(=O)C2(CCCC2)NC(=O)[C@@H]2CCCN2C(=O)[C@H](CCc2ccc(C(F)(F)F)c(F)c2)NC(=O)CN(C)C(=O)[C@H](CC2CCCCC2)N(C)C(=O)[C@@H]2CCN2C(=O)[C@H](C)NC1=O [Compound 1252] ([NEtLeu]IA[Aze][NMeCha][Sar][hPhe(3-F,4-CF3)]P[Ac5c][NMeGly(cPent)][NMeD]-NMe2; lactam N-11)	2.5 nM	100 to 500 nM
CCC[C@H]1C(=O)N[C@@H]([C@@H](C)CC)C(=O)N(C)CC(=O)N(C)CC(=O)N(C)[C@@H](CC2CCCCC2)C(=O)N(C)CC(=O)N[C@@H](CCc2cc(F)c(C(F)(F)F)c(F)c2)C(=O)N2CCC[C@H]2C(=O)NC2(CCCC2)C(=O)N(C)[C@@H](C2CCCCC2)C(=O)N(C)[C@H](C(=O)N2CCCC2)CC(=O)N1C [Compound 1253] ([NMeNva]I[Sar][Sar][NMeCha][Sar][hPhe(3,5-F2-4-CF3)]P[Ac5c][NMeChg][NMeD]-Pyrrolidide; lactam N-11)	0.81 nM	20 to 50 nM
CC[C@H](C)[C@@H]1NC(=O)[C@H](CC(C)C)N(C)C(=O)C[C@@H](C(=O)N2CCCCC2)N(C)C(=O)[C@H](C2CCCCC2)N(C)C(=O)C2(CCCC2)NC(=O)[C@@H]2CCCN2C(=O)[C@H](CCc2ccc(C(F)(F)F)c(Cl)c2)NC(=O)CN(C)C(=O)[C@H](CC2CCCCC2)N(C)C(=O)CN(C)C(=O)CN(CC)C1=O [Compound 1255] ([NMeL]I[NEtG][Sar][NMeCha][Sar][hPhe(3-Cl-4-CF3)]P[Ac5c][NMeChg][NMeD]-Piperidide; lactam N-11)	1.4 nM	100 to 500 nM
CC[C@H](C)[C@@H]1NC(=O)[C@H](CC(C)C)N(C)C(=O)C[C@@H](C(=O)N2CCC(C)(C)C2)NC(=O)[C@H]([C@@H](C)CC)N(C)C(=O)C2(CCCC2)NC(=O)[C@@H]2CCCN2C(=O)[C@H](CCc2ccc(C(F)(F)F)c(Cl)c2)NC(=O)CN(C)C(=O)[C@H](CC2CCCCC2)N(C)C(=O)CN(C)C(=O)CN(C)C1=O [Compound 1273] ([NMeL]I[Sar][Sar][NMeCha][Sar][hPhe(3-Cl-4-CF3)]P[Ac5c][NMeI]D-X14; lactam N-11)	7.2 nM	100 to 500 nM
CC[C@H](C)[C@@H]1NC(=O)[C@H](C2CCC2)N(C)C(=O)C[C@@H](C(=O)N2CCCC2)N(C)C(=O)[C@H](C2CCCCC2)N(C)C(=O)C2(CCCC2)NC(=O)[C@@H]2CCCN2C(=O)[C@H](CCc2cc(F)c(C(F)(F)F)c(F)c2)NC(=O)CN(C)C(=O)[C@H](CC2CCCCC2)N(C)C(=O)CN(C)C(=O)CN(C)C1=O [Compound 1275] ([NMeGly(cBu)]I[Sar][Sar][NMeCha][Sar][hPhe(3,5-F2-4-CF3)]P[Ac5c][NMeChg][NMeD]-Pyrrolidide; lactam N-11)	0.65 nM	20 to 50 nM
CC[C@H](C)[C@@H]1NC(=O)[C@H](CC(F)(F)F)N(C)C(=O)C[C@@H](C(=O)N2CCCC2)N(C)C(=O)[C@H](C2CCCCC2)N(C)C(=O)C2(CCCC2)NC(=O)[C@@H]2CCCN2C(=O)[C@H](CCc2cc(F)c(C(F)(F)F)c(F)c2)NC(=O)CN(C)C(=O)[C@H](Cc2ccc(C)cc2)N(C)C(=O)CN(C)C(=O)CN(C)C1=O [Compound 1278] ([NMeAbu(4,4,4-F3)]I[Sar][Sar][NMePhe(4-Me)][Sar][hPhe(3,5-F2-4-CF3)]P[Ac5c][NMeChg][NMeD]-Pyrrolidide; lactam N-11)	0.65 nM	20 to 50 nM
CC[C@H](C)[C@@H]1NC(=O)[C@H](CC(C)C)N(C)C(=O)C[C@@H](C(=O)N2CCN(C3COC3)CC2)N(C)C(=O)[C@H](C2CCCCC2)N(C)C(=O)C2(CCCC2)NC(=O)[C@@H]2CCCN2C(=O)[C@H](CCc2ccc(C(F)(F)F)c(Cl)c2)NC(=O)CN(C)C(=O)[C@H](CC2CCCCC2)N(C)C(=O)CN(C)C(=O)CN(C)C1=O [Compound 1284] ([NMeL]I[Sar][Sar][NMeCha][Sar][hPhe(3-Cl-4-CF3)]P[Ac5c][NMeChg][NMeD]-{Piperazinyl(4-(3-oxetanyl))}; lactam N-11)	0.69 nM	100 to 500 nM
